Experimental data reported in patent US20260001928A1 (CORTERIA PHARMACEUTICALS, priority 2022, published 2026).
*1 amine or outer side, *2 acyl side, *3 side chain or, on linkers, in order; H or OH if unused. Where a SMILES comes first, the peptide text is derived from it. Side-chain parts run from the residue outwards. [ ]: non-standard residue; d: D form. The star is where a group is joined. C20 diacid = O=C(O)CCCCCCCCCCCCCCCCCCC(=O)*; C18 diacid = O=C(O)CCCCCCCCCCCCCCCCC(=O)*; C16 diacid = O=C(O)CCCCCCCCCCCCCCC(=O)*; γGlu = O=C(O)[C@H](CCC(=O)[*:2])N[*:1]; C14 diacid = O=C(O)CCCCCCCCCCCCC(=O)*; NMeI = CC[C@H](C)[C@H](NC)C(=O)O; Api = NC1(C(=O)O)CCNCC1; Pentanoyl = CCCCC(=O)*; AEEA = NCCOCCOCC(=O)O; Aib = CC(C)(N)C(=O)O

Key:
[1] = biological target: T1, human CRF2a receptor (Homo sapiens, UniProt Q13324); experiment: Activity at human CRF2a receptor, cAMP functional assay in TeloHEAC cells; format: cell-based; details: TeloHEAC cells stably expressing human CRF2a receptor, relative to urocortin 2 (100 nM = 100%)
T1 construct: expressed in transfected cells; host or cells: TeloHEAC cells
T1 sequence (Q13324 1-411): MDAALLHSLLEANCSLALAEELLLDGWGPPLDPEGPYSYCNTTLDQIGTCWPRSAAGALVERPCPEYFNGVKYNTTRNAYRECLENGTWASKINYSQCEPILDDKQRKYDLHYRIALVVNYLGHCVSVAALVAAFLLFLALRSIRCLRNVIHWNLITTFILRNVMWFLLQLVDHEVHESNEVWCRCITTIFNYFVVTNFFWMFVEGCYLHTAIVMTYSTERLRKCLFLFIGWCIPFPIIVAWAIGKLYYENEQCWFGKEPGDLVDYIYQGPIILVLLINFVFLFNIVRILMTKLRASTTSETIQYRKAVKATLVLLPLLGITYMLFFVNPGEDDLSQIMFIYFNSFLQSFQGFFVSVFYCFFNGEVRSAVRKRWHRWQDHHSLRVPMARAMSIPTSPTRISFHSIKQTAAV
How it was run: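 TeloHEAC cells stably expressing human CRF2a (10000 cells/well) were treated with 16-point 1:2 compound dilutions in HBSS/20 mM HEPES with IBMX for 30 min at 37° C. cAMP was read by HTRF (665/620 nm ratio). EC50 was the concentration giving 50% activation, with 100 nM urocortin 2 set as 100%.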

[2] = biological target: T2, CFR1R receptor (Homo sapiens, UniProt P34998); experiment: Activity at anti-target CFR1R receptor, cAMP assay in CRF1R-overexpression CHO-K1 cells; format: cell-based; details: 100% = Sauvagine at 100 nM; for EC50: cAMP
T2 construct: host or cells: CHO-K1 (clone 2)
T2 sequence (P34998 24-415): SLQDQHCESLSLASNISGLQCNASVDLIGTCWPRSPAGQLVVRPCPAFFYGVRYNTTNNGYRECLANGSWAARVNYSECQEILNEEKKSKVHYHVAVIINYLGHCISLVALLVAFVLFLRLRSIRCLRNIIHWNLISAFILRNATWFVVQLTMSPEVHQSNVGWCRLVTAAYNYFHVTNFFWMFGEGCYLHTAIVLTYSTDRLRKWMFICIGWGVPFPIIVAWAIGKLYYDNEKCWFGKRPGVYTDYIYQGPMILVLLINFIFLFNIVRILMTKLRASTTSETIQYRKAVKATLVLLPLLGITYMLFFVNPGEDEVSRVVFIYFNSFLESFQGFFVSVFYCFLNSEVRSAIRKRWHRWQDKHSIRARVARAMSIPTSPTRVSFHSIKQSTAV
How it was run: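 Clone 2; cryopreserved stocks (10% DMSO); 4000 cells/well final; 100% activation = Sauvagine 100 nM; otherwise as TeloHAEC protocol.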

Row | Compound | EC50 [1] [pM] | Emax (% I) [2] [% I] | EC50 [2] [pM]
1 | CC[C@H](C)[C@H](NC(=O)[C@H](CCC(N)=O)NC(=O)C(C)(C)NC(=O)[C@H](CC(N)=O)NC(=O)[C@@H](NC(=O)[C@H](CCC(=O)O)NC(=O)[C@H](C)NC(=O)[C@H](CCC(N)=O)NC(=O)[C@H](CCC(=O)O)NC(=O)[C@H](CCCNC(=N)N)NC(=O)[C@H](CCC(N)=O)NC(=O)[C@H](CCCCN)NC(=O)[C@H](CCCCN)NC(=O)[C@H](CCC(N)=O)NC(=O)[C@H](CCCCN)NC(=O)[C@H](CCC(=O)O)NC(=O)[C@H](CCC(N)=O)NC(=O)[C@H](CCC(=O)O)NC(=O)[C@H](CC(C)C)NC(=O)[C@H](CC(C)C)NC(=O)[C@@H](NC(=O)[C@H](CCCCN)NC(=O)[C@H](CCCCNC(=O)CC[C@H](NC(=O)CCCCCCCCCCCCCCC(=O)O)C(=O)O)NC(=O)[C@H](CC(C)C)NC(=O)[C@H](CCCCN)NC(=O)[C@@H](NC(=O)[C@@H]1CCCN1C(=O)[C@H](NC(=O)[C@H](CC(=O)O)NC(=O)[C@H](CC(C)C)NC(=O)[C@H](CO)NC(=O)[C@H](CC(C)C)NC(=O)[C@@H](NC(C)=O)C(C)C)C(C)C)[C@@H](C)CC)[C@@H](C)CC)[C@@H](C)O)C(=O)N[C@@H](CC(C)C)C(=O)N[C@@H](C)C(=O)N[C@@H](CCC(N)=O)C(=O)N[C@H](C(N)=O)C(C)C [compound 45] (Ac-VLSLD[dV]PIKLK([γGlu-C16 diacid])KILLEQEKQKKQREQAETN[Aib]QILAQV-NH2) | 960 | 5 | > 250000
2 | CC[C@H](C)[C@H](NC)C(=O)N[C@H](C(=O)N[C@@H](CC(C)C)C(=O)N[C@@H](CO)C(=O)N[C@@H](CC(C)C)C(=O)N[C@@H](CC(=O)O)C(=O)N[C@@H](C(=O)N1CCC[C@H]1C(=O)N[C@H](C(=O)N[C@@H](CCCCN)C(=O)N[C@@H](CC(C)C)C(=O)N[C@@H](CCCCNC(=O)CC[C@H](NC(=O)CCCCCCCCCCCCCCC(=O)O)C(=O)O)C(=O)N[C@@H](CCCCN)C(=O)N[C@H](C(=O)N[C@@H](CC(C)C)C(=O)N[C@@H](CC(C)C)C(=O)N[C@@H](CCC(=O)O)C(=O)N[C@@H](CCC(N)=O)C(=O)N[C@@H](CCC(=O)O)C(=O)N[C@@H](CCCCN)C(=O)N[C@@H](CCC(N)=O)C(=O)N[C@@H](CCCCN)C(=O)NC(C)(C)C(=O)N[C@@H](CCC(N)=O)C(=O)N[C@@H](CCCNC(=N)N)C(=O)N[C@@H](CCC(=O)O)C(=O)N[C@@H](CCC(N)=O)C(=O)N[C@@H](C)C(=O)N[C@@H](CCC(=O)O)C(=O)N[C@H](C(=O)N[C@@H](CC(N)=O)C(=O)NC1(C(=O)N[C@@H](CCC(N)=O)C(=O)N[C@H](C(=O)N[C@@H](CC(C)C)C(=O)N[C@@H](C)C(=O)N[C@@H](CCC(N)=O)C(=O)N[C@H](C(N)=O)C(C)C)[C@@H](C)CC)CCNCC1)[C@@H](C)O)[C@@H](C)CC)[C@@H](C)CC)C(C)C)C(C)C [compound 155] (H-[NMeI]VLSLD[dV]PIKLK([γGlu-C16 diacid])KILLEQEKQK[Aib]QREQAETN[Api]QILAQV-NH2) | 510 | 26 | > 250000
3 | CC[C@H](C)[C@H](NC)C(=O)N[C@H](C(=O)N[C@@H](CC(C)C)C(=O)N[C@@H](CO)C(=O)N[C@@H](CC(C)C)C(=O)N[C@@H](CC(=O)O)C(=O)N[C@@H](C(=O)N1CCC[C@H]1C(=O)N[C@H](C(=O)N[C@@H](CCCCN)C(=O)N[C@@H](CC(C)C)C(=O)N[C@@H](CCCCNC(=O)CC[C@H](NC(=O)CCCCCCCCCCCCC(=O)O)C(=O)O)C(=O)N[C@@H](CCCCN)C(=O)N[C@H](C(=O)N[C@@H](CC(C)C)C(=O)N[C@@H](CC(C)C)C(=O)N[C@@H](CCC(=O)O)C(=O)N[C@@H](CCC(N)=O)C(=O)N[C@@H](CCC(=O)O)C(=O)N[C@@H](CCCCN)C(=O)N[C@@H](CCC(N)=O)C(=O)N[C@@H](CCCCN)C(=O)NC(C)(C)C(=O)N[C@@H](CCC(N)=O)C(=O)N[C@@H](CCCNC(=N)N)C(=O)N[C@@H](CCC(=O)O)C(=O)N[C@@H](CCC(N)=O)C(=O)N[C@@H](C)C(=O)N[C@@H](CCC(=O)O)C(=O)N[C@H](C(=O)N[C@@H](CC(N)=O)C(=O)NC(C)(C)C(=O)N[C@@H](CCC(N)=O)C(=O)N[C@H](C(=O)N[C@@H](CC(C)C)C(=O)N[C@@H](C)C(=O)N[C@@H](CCC(N)=O)C(=O)N[C@H](C(N)=O)C(C)C)[C@@H](C)CC)[C@@H](C)O)[C@@H](C)CC)[C@@H](C)CC)C(C)C)C(C)C [compound 177] (H-[NMeI]VLSLD[dV]PIKLK([γGlu-C14 diacid])KILLEQEKQK[Aib]QREQAETN[Aib]QILAQV-NH2) | 860 | 10 | > 250000
4 | CCCCC(=O)N[C@H](C(=O)N[C@@H](CC(C)C)C(=O)N[C@@H](CO)C(=O)N[C@@H](CC(C)C)C(=O)N[C@@H](CC(=O)O)C(=O)N[C@@H](C(=O)N1CCC[C@H]1C(=O)N[C@H](C(=O)N[C@@H](CCCCN)C(=O)N[C@@H](CC(C)C)C(=O)N[C@@H](CCCCNC(=O)COCCOCCNC(=O)COCCOCCNC(=O)CC[C@H](NC(=O)CCCCCCCCCCCCCCCCC(=O)O)C(=O)O)C(=O)N[C@@H](CCCCN)C(=O)N[C@H](C(=O)N[C@@H](CC(C)C)C(=O)N[C@@H](CC(C)C)C(=O)N[C@@H](CCC(=O)O)C(=O)N[C@@H](CCC(N)=O)C(=O)N[C@@H](CCC(=O)O)C(=O)N[C@@H](CCCCN)C(=O)N[C@@H](CCC(N)=O)C(=O)N[C@@H](CCCCN)C(=O)N[C@@H](CCCCN)C(=O)N[C@@H](CCC(N)=O)C(=O)N[C@@H](CCCNC(=N)N)C(=O)N[C@@H](CCC(=O)O)C(=O)N[C@@H](CCC(N)=O)C(=O)N[C@@H](C)C(=O)N[C@@H](CCC(=O)O)C(=O)N[C@H](C(=O)N[C@@H](CC(N)=O)C(=O)N[C@@H](C)C(=O)N[C@@H](CCC(N)=O)C(=O)N[C@H](C(=O)N[C@@H](CC(C)C)C(=O)N[C@@H](C)C(=O)N[C@@H](CCC(N)=O)C(=O)N[C@H](C(N)=O)C(C)C)[C@@H](C)CC)[C@@H](C)O)[C@@H](C)CC)[C@@H](C)CC)C(C)C)C(C)C [compound 122] (Pentanoyl-VLSLD[dV]PIKLK([AEEA-AEEA-γGlu-C18 diacid])KILLEQEKQKKQREQAETNAQILAQV-NH2) | 670 | 5 | > 250000
5 | CC[C@H](C)[C@H](NC(C)=O)C(=O)N[C@H](C(=O)N[C@@H](CC(C)C)C(=O)N[C@@H](CO)C(=O)N[C@@H](CC(C)C)C(=O)N[C@@H](CC(=O)O)C(=O)N[C@@H](C(=O)N1CCC[C@H]1C(=O)N[C@H](C(=O)N[C@@H](CCCCN)C(=O)N[C@@H](CC(C)C)C(=O)N[C@@H](CCCCNC(=O)CC[C@H](NC(=O)CCCCCCCCCCCCCCCCCCC(=O)O)C(=O)O)C(=O)N[C@@H](CCCCN)C(=O)N[C@H](C(=O)N[C@@H](CC(C)C)C(=O)N[C@@H](CC(C)C)C(=O)N[C@@H](CCC(=O)O)C(=O)N[C@@H](CCC(N)=O)C(=O)N[C@@H](CCC(=O)O)C(=O)N[C@@H](C)C(=O)N[C@@H](CCC(N)=O)C(=O)N[C@@H](CCCCN)C(=O)N[C@@H](CCCCN)C(=O)N[C@@H](CCC(N)=O)C(=O)N[C@@H](CCCNC(=N)N)C(=O)N[C@@H](CCC(=O)O)C(=O)N[C@@H](CCC(N)=O)C(=O)N[C@@H](C)C(=O)N[C@@H](CCC(=O)O)C(=O)N[C@H](C(=O)N[C@@H](CC(N)=O)C(=O)NC(C)(C)C(=O)N[C@@H](CCC(N)=O)C(=O)N[C@H](C(=O)N[C@@H](CC(C)C)C(=O)N[C@@H](C)C(=O)N[C@@H](CCC(N)=O)C(=O)N[C@H](C(N)=O)C(C)C)[C@@H](C)CC)[C@@H](C)O)[C@@H](C)CC)[C@@H](C)CC)C(C)C)C(C)C [compound 211] (Ac-IVLSLD[dV]PIKLK([γGlu-C20 diacid])KILLEQEAQKKQREQAETN[Aib]QILAQV-NH2) | 150 | 73 | –
